# Values of other authors in patent US20160158203A1, “METHODS OF TREATMENT WITH BIOAVAILABLE COMPOSITIONS OF METAXALONE COMPRISING NONVOLATILE LIQUIDS” (priority 2004, published 2016).
# Conditions: as reviewed in U.S. Pat. Nos. 6,407,128 and 6,683,102
structure (smiles),measurement,value
"Cc1cc(C)cc(OCC2CNC(=O)O2)c1 (stereo not shown) [metaxalone, 5-[(3,5-dimethylphenoxy)methyl]-2 oxazolidinone]",Aqueous solubility (description),essentially water-insoluble
